Laboratory results from paper PMC2976784 (Proteins, 2010).

Biological target: T1, YndB (Bacillus subtilis, UniProt O31806)
T1 sequence (O31806 1-144): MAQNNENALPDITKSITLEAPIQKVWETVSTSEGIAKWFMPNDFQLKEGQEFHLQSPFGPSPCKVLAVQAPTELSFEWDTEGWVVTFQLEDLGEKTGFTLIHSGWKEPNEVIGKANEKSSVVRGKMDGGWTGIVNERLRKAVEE
Test: 2D 1H-15N HSQC NMR titration, chemical shift perturbation fit
Type: binding

Kd	Compound
32 ± 3 µM	O=C1CC(c2ccccc2)Oc2ccccc21 (stereo not shown) [flavanone]
62 ± 9 µM	O=c1cc(-c2ccccc2)oc2ccccc12 [flavone]
86 ± 16 µM	O=c1c(O)c(-c2ccccc2)oc2ccccc12 [flavonol]
< 1 µM	O=C(/C=C/c1ccccc1)c1ccccc1 [trans-chalcone]
